Test results taken from patent publication US20200045974A1, “Substituted Oxadiazoles for Combating Phytopathogenic Fungi” (BASF SE, priority 2017, published 2020).

Columns and labels:
Assay type in all cases: in vivo
Phakopsora pachyrhizi [1] = test: Protective control of soy bean rust on soy beans; details: 32 ppm active compound, soy bean seedlings sprayed 2 days before inoculation, assessed after fourteen days; untreated plants 100%
Method: (§1) This mixture was added to 25 mg of the compound to give a total of 5 mL. Water was then added to total volume of 100 mL. This stock solution was diluted with the described solvent-emulsifier-water mixture to the given concentration.
II.2) Protective Control of Soy Bean Rust on Soy Beans Caused by Phakopsora pachyrhizi
Leaves of pot-grown soy bean seedlings were sprayed to run-off with an aqueous suspension, containing the concentration of active ingredient or their mixture as described below. The plants were allowed to air-dry. The trial plants were cultivated for 2 day in a greenhouse chamber at 23 to 27° C. and a relative humidity between 60 and 80%.Then the plants were inoculated with spores of Phakopsora pachyrhizi. To ensure the success the artificial inoculation, the plants were transferred to a humid chamber with a relative humidity of about 95% and 20 to 24° C. for 24 hours. The trial plants were cultivated for fourteen days in a greenhouse chamber at 23 to 27° C. and a relative humidity between 60 and 80%. The extent of fungal attack on the leaves was visually assessed as % diseased leaf area.

Puccinia recondite = test: Curative control of brown rust on wheat; details: 32 ppm active compound, wheat seedlings sprayed after inoculation, assessed after 8 days; untreated plants 90%
Method: as §1
II.3) Curative Control of Brown Rust on Wheat Caused by Puccinia Recondite
The first two developed leaves of pot-grown wheat seedling were dusted with spores of Puccinia recondite. To ensure the success the artificial inoculation, the plants were transferred to a humid chamber without light and a relative humidity of 95 to 99% and 20 to 24° C. for 24 hours. The next day the plants were cultivated for 3 days in a greenhouse chamber at 20 to 24° C. and a relative humidity between 65 and 70%. Then the plants were sprayed to run-off with an aqueous suspension, containing the concentration of active ingredient or their mixture as described below. The plants were allowed to air-dry. Then the trial plants were cultivated for 8 days in a greenhouse chamber at 20 to 24° C. and a relative humidity between 65 and 70%. The extent of fungal attack on the leaves was visually assessed as % diseased leaf area.

Phakopsora pachyrhizi [2] = test: Curative control of soy bean rust on soy beans; details: 32 ppm active compound, soy bean seedlings sprayed after inoculation, assessed after 14 days; untreated plants 100%
Method: as §1
II.1) Curative Control of Soy Bean Rust on Soy Beans Caused by Phakopsora pachyrhizi
Leaves of pot-grown soy bean seedlings were inoculated with spores of Phakopsora pachyrhizi. To ensure the success of the artificial inoculation, the plants were transferred to a humid chamber with a relative humidity of about 95% and 20 to 24° C. for 24 hours. The next day the plants were cultivated for 3 days in a greenhouse chamber at 23 to 27° C. and a relative humidity between 60 and 80%. Then the plants were sprayed to run-off with an aqueous suspension, containing the concentration of active ingredient or their mixture as described below. The plants were allowed to air-dry. Then the trial plants were cultivated for 14 days in a greenhouse chamber at 23 to 27° C. and a relative humidity between 60 and 80%. The extent of fungal attack on the leaves was visually assessed as % diseased leaf area.

**Q.** Which results are given for O=C(NC12CC(C1)C2)c1ccc(-c2noc(C(F)(F)F)n2)cc1 [Ex-1, N-(1-bicyclo[1.1.1]pentanyl)-4-[5-(trifluoromethyl)-1,2,4-oxadiazol-3-yl]benzamide]?
**A.** diseased leaf area (Phakopsora pachyrhizi [1]): 0%; diseased leaf area (Puccinia recondite): 2%; diseased leaf area (Phakopsora pachyrhizi [2]): 0%
